Reference: US20260159519A1, “IMIDAZOPYRIDAZINE SUBSTITUTED BENZENE RING DERIVATIVE, PREPARATION METHOD, PHARMACEUTICAL COMPOSITION AND USE” (SHANGHAI SIMR BIOTECHNOLOGY CO., LTD., priority 2022, published 2026)
Where two headings read alike, the source gives them in different places.

Assays:
[1] = target: T1, human α2-GABAA receptor (BZD site, membrane protein of HEK293 cells) (Homo sapiens, UniProt P18507+P47869); experiment: Radioligand competitive binding assay (3H-flunitrazepam) at the BZD site of the α2-GABAA receptor
T1 construct: expressed in transfected cells
Text: (§1) α subunit, β subunit, and γ subunit are essential for the formation of a complete and functional GABAA receptor. In this example of the present disclosure, HEK293 cells stably expressing the human α1-GABAA receptor (α1-GABAAR) and α2-GABAA receptor (α2-GABAAR) were constructed and separately selected using the lipofection method (Felgner, P. L., et al. Proceedings of the National Academy of Sciences, 1987, 84: 7413-7417). The α1-GABAAR-HEK293 cell model simultaneously expressed the α1 subunit (for protein sequence, see GenBank accession No.: NM_000806.5), the […] (for protein sequence, see GenBank accession No.: NM_000814.5), and the […] (for protein sequence, see GenBank accession No.: NM_000816.3). The α2-GABAAR-HEK293 cell model simultaneously expressed the α2 subunit (for protein sequence, see GenBank accession No.: NM_000807.4), the β3 subunit (for protein sequence, see GenBank accession No.: NM_000814.5), and the γ2 subunit (for protein sequence, see GenBank accession No.: NM_000816.3).
(§2) The above cell lines were subcultured. The α2-GABAAR-HEK293 cells were expanded for testing the affinity of compounds to the benzodiazepine (BZD) site of the GABAA receptor. During the passage process, some of the α1-GABAAR-HEK293 cells and α2-GABAAR-HEK293 cells were suspended and plated on a slide pre-treated with Poly-D-Lysine for electrophysiological testing (method referenced from patent CN107344936A, paragraph 0586).
The affinity of the compounds for the α2-GABAA receptor was determined by competing for the binding of ^3H-flunitrazepam (isotope ^3H-labelled flunitrazepam) to the BZD site on the membrane protein of HEK293 cells stably expressing the human α2-GABAAR.
Membrane preparation: Cells were suspended in 50 mM Tris-HCl buffer (pH=7.4), homogenized 10 times for 20 seconds with a homogenizer on ice, and centrifuged at 1000 g for 10 minutes at 4° C. The supernatant was taken, and the above steps were repeated. The supernatant was centrifuged at 4° C. (33800 g; Thermo, rotor: A27-8×50) for 60 minutes. The precipitate was resuspended in Tris buffer (50 mM Tris-HCl, 10 mM MgCl2, 0.5 mM EDTA, and 10% glycerol). The protein content was determined (BCA (bicinchoninic acid) protein quantification assay based on copper ion reduction, with a BCA kit purchased from Pierce (Annoron (Beijing) Biotechnology Co., Ltd.)), and 1 mL aliquots were prepared and stored at −80° C.
Radioligand competitive binding assay: This assay was performed in a 200 μL system (96-well plate) containing 100 μL of cell membrane. The concentration of ^3H-flunitrazepam was 1 nM, and the concentrations of the test compounds were in the range of […]. Flumazenil was used as a control. 1 μL of 2 mM flumazenil (final […]) was added to each low signal control (low control, LC) well, and 1 μL of dimethyl sulfoxide was added to each high signal control (high control, HC) well. The final concentration of target membrane protein was […]. All sample stock solutions of test compounds were 10 mM dimethyl sulfoxide solutions. All the samples were diluted to a concentration of 0.2 mM with dimethyl sulfoxide, and then subjected to a 4-fold serial dilution for a total of 8 working concentration gradients. The 96-well plate was sealed with a sealing membrane and then incubated on a shaker at room temperature for 1 hour. Meanwhile, a GF/C filter plate was soaked in plate soaking buffer (0.3% PEI (polyethyleneimine, purchased from Sigma-Aldrich, model: P314), stored at 4° C.) for at least 0.5 hours. After the binding incubation was completed, the cells were harvested onto the GF/C filter plate using a cell harvester and washed four times with plate washing buffer (50 mM Tris-HCl, pH 7.4, stored at 4° C.). After drying in an oven at 50° C. for 1 hour, the dried GF/C filter plate was bottom-sealed. The residual radioactivity on the filter membrane was detected by liquid scintillation counting.

[2] = target: T2, human α1-GABAA receptor (α1-GABAAR-HEK293 cells) (Homo sapiens, UniProt P14867+P18507); experiment: Whole-cell patch-clamp electrophysiology, positive allosteric modulatory activity on α1-GABAA receptor; assay type: cell-based; settings: read-out: α1-GABAA positive allosteric modulatory activity
T2 construct: expressed in transfected cells
Text: as §1, §2
(§3) The positive regulatory activity of the test drugs on the α1-GABAA receptor and the α2-GABAA receptor was detected by the electrophysiological method. The specific method was as follows:
(§4) Compound concentration setting: The final concentration of the compounds used for screening was 100 nM. For cell lines expressing the α1-GABAA receptor, the concentration of GABA was 0.05 to 0.07 μM (approximately EC2-4). For cell lines expressing the α2-GABAA receptor, the concentration of GABA was 0.10 to 0.11 μM (approximately EC7-8). Electrophysiological testing was performed using the whole-cell patch-clamp technique, which can refer to the method reported in the literature (Nickolls, S. A., et al. British Journal of Pharmacology, 2018, 175: 708-725). The composition of the extracellular solution (ECS) for electrophysiology was as follows: 150 mM NaCl, 5 mM KCl, 2.5 mM CaCl2, 1 mM MgCl2, 10 mM HEPES, and 10 mM glucose (pH 7.4). The formulation of the intracellular solution (ICS) for electrophysiology was as follows: 140 mM CsCl, 11 mM EGTA, 10 mM HEPES, 2 mM CaCl2, 1 mM MgCl2, 4 mM MgATP, and 2 mM TEA (pH 7.3). GABA (γ-aminobutyric acid) powder was prepared into a mother liquor with pure water, which was then diluted in ECS. The compound was first prepared into a 4 mM mother liquor with dimethyl sulfoxide, which was then gradually diluted in the corresponding concentration of GABA-ECS. The solutions were freshly prepared prior to electrophysiological testing.
(§5) Electrophysiological signal acquisition was performed using an EPC 10 amplifier and PatchMaster software (HEKA) or an Axon 700B amplifier and Clampex software (AXON). The recording electrode was made through a drawing process using borosilicate glass, with an electrode resistance of 4 to 6 MΩ. Extracellular administration was performed using the ALA-VC-8PG™ system. A single, independently growing cell was selected. After the glass electrode formed a good seal with the cell, the membrane was ruptured to form the whole-cell configuration. The cell membrane potential was clamped at −60 mV and recorded in Gap-free mode. During the test, the extracellular solution was first applied extracellularly for approximately 20 seconds. After the baseline (Iprebaseline) stabilized, the extracellular solution was switched to GABA-ECS. At this point, the current induced by GABA (Igaba) could be detected. After approximately 10 to 20 seconds, when the current stabilized, the extracellular solution was switched to a mixture of the compound and GABA-ECS. […]

[3] = target: T3, human α2-GABAA receptor (α2-GABAAR-HEK293 cells) (Homo sapiens, UniProt P18507+P47869); experiment: Whole-cell patch-clamp electrophysiology, positive allosteric modulatory activity on α2-GABAA receptor; assay type: cell-based; settings: read-out: α2-GABAA positive allosteric modulatory activity
T3 construct: expressed in transfected cells
Text: as §1, §2, §3, §4, §5

[4] = competition with 1 nM 3H-flunitrazepam; Ki calculated from IC50; read-out: α2 Ki

`CCn1cnc2c(-c3ccc(F)c(-c4cc5cn(C6CC6)nc5cc4OC)c3)cnnc21` [Example 114, 4-(3-(2-Cyclopropyl-6-methoxy-2H-indazol-5-yl)-4-fluorophenyl)-7-ethyl-7H-imidazo[4,5-c]pyridazine] gave a Ki [1, 4] of 9.97 nM, an activation at 0.1 µM [2] of 68% and an activation at 0.1 µM [3] of 107%.
`CCn1cnc2c(-c3ccc(F)c(-c4cc5oc(=O)n(CCOC)c5cc4OC)c3)cnnc21` [Example 28, 6-(5-(7-Ethyl-7H-imidazo[4,5-c]pyridazin-4-yl)-2-fluorophenyl)-5-methoxy-3-(2-methoxyethyl)benzo[d]oxazol-2(3H)-one] showed a Ki [1, 4] of 8.56 nM, an activation at 0.1 µM [2] of 38% and an activation at 0.1 µM [3] of 115%.
`CCn1cnc2c(-c3ccc(F)c(-c4ccc5c(nnn5CC)c4COC)c3)cnnc21` [Example 11, 7-Ethyl-4-(3-(1-ethyl-4-(methoxymethyl)-1H-benzo[d][1,2,3]triazol-5-yl)-4-fluorophenyl)-7H-imidazo[4,5-c]pyridazine] showed a Ki [1, 4] of 16.4 nM, an activation at 0.1 µM [2] of 75% and an activation at 0.1 µM [3] of 97%.
`CCn1cnc2c(-c3ccc(F)c(-c4cc5oc(=O)n(C6CC6)c5cc4OC)c3)cnnc21` [Example 51, 3-Cyclopropyl-6-(5-(7-ethyl-7H-imidazo[4,5-c]pyridazin-4-yl)-2-fluorophenyl)-5-methoxybenzo[d]oxazol-2(3H)-one] was tested, and the Ki [1, 4] was 3.44 nM, the activation at 0.1 µM [2] was 14% and the activation at 0.1 µM [3] was 90%.
`CCn1cnc2c(-c3ccc(F)c(-c4cc5c(cc4OC)N(C)C(=O)C(COC)O5)c3)cnnc21` (single isomer, unassigned) [Example 162] showed a Ki [1, 4] of 14.5 nM, an activation at 0.1 µM [2] of 42% and an activation at 0.1 µM [3] of 114%.
With `CCn1cnc2c(-c3ccc(F)c(-c4cc5c(cc4OC)N(CCN4CCOCC4)C(=O)CO5)c3)cnnc21` [Example 18, 7-(5-(7-Ethyl-7H-imidazo[4,5-c]pyridazin-4-yl)-2-fluorophenyl)-6-methoxy-4-(2-morpholinoethyl)-2H-benzo[b][1,4]oxazin-3(4H)-one] the Ki ([1]; read-out: α2 Ki; competition with 1 nM 3H-flunitrazepam; Ki calculated from IC50) was 13.9 nM, the activation at 0.1 µM [2] was 30% and the activation at 0.1 µM [3] was 106%.
Compound `COc1cc2c(cc1-c1cc(-c3cnnc4c3ncn4C(C)C)ccc1F)oc(=O)n2C` [Example 35, 6-(2-Fluoro-5-(7-isopropyl-7H-imidazo[4,5-c]pyridazin-4-yl)phenyl)-5-methoxy-3-methylbenzo[d]oxazol-2(3H)-one] has a Ki [1, 4] of 7.73 nM, an activation at 0.1 µM [2] of 80% and an activation at 0.1 µM [3] of 134%.
With `CCn1cnc2c(-c3ccc(F)c(-c4cc5cc(C(C)=O)c(=O)n(C)c5cc4OC)c3)cnnc21` [Example 1, 3-Acetyl-6-(5-(7-ethyl-7H-imidazo[4,5-c]pyridazin-4-yl)-2-fluorophenyl)-7-methoxy-1-methylquinolin-2(1H)-one] the Ki [1, 4] was 6 nM, the activation at 0.1 µM [2] was 13% and the activation at 0.1 µM [3] was 151%.
In the case of `CCn1cnc2c(-c3ccc(F)c(-c4cc5oc(=O)n(CC6CC6)c5cc4OC)c3)cnnc21` [Example 34, 3-(Cyclopropylmethyl)-6-(5-(7-ethyl-7H-imidazo[4,5-c]pyridazin-4-yl)-2-fluorophenyl)-5-methoxybenzo[d]oxazol-2(3H)-one], the Ki [1, 4] is reported as 5.71 nM, the activation at 0.1 µM [2] is reported as 70% and the activation at 0.1 µM [3] is reported as 124%.
In the case of `CCn1cnc2c(-c3ccc(F)c(-c4cc5cn(C6CCOC6)nc5cc4OC)c3)cnnc21` (stereo not drawn) [Example 122, 7-Ethyl-4-(4-fluoro-3-(6-methoxy-2-(tetrahydrofuran-3-yl)-2H-indazol-5-yl)phenyl)-7H-imidazo[4,5-c]pyridazine], the Ki [1, 4] is reported as 4.76 nM, the activation at 0.1 µM [2] is reported as 39% and the activation at 0.1 µM [3] is reported as 125%.
`CCn1cc2cc(-c3cc(-c4cnnc5c4ncn5CC)ccc3F)c(OC)cc2n1` [Example 130, 7-Ethyl-4-(3-(2-ethyl-6-methoxy-2H-indazol-5-yl)-4-fluorophenyl)-7H-imidazo[4,5-c]pyridazine] gave a Ki [1, 4] of 4.8 nM, an activation at 0.1 µM [2] of 36% and an activation at 0.1 µM [3] of 139%.
